Melting point, 125 °C:
CS(=O)(=O)c1cc(OC[C@@H](O)CN[C@H]2CC[C@H](c3ccc(C(=O)N4CCC5(CC4)Cc4ccccc4C5)cc3)CC2)ccc1O [compound No. 13, trans-4-{[(2S)-3-({4-[4-(1,3-dihydro-1′H-spiro[indene-2,4′-piperidin]-1′-ylcarbonyl)phenyl]-cyclohexyl}amino)-2-hydroxypropyl]oxy}-2-(methylsulfonyl)phenol]
CS(=O)(=O)c1cc(OC[C@@H](O)CN[C@H]2CC[C@H](c3ccc(C(=O)N4CCC5(CCc6ccccc65)CC4)cc3)CC2)ccc1O [compound No. 15, trans-4-{[(2S)-3-({4-[4-(2,3-dihydro-1′H-spiro[indene-1,4′-piperidin]-1′-ylcarbonyl)phenyl]-cyclohexyl}amino)-2-hydroxypropyl]oxy}-2-(methylsulfonyl)phenol]
CS(=O)(=O)c1cc(OC[C@@H](O)CN[C@H]2CC[C@H](c3ccc(C(=O)N4CCC5(CCCc6ccccc65)CC4)cc3)CC2)ccc1O [compound No. 17, trans-4-{[(2S)-3-({4-[4-(3,4-dihydro-1′H-spiro[naphthalene-1,4′-piperidin]-1′-ylcarbonyl)phenyl]cyclohexyl}amino)-2-hydroxypropyl]-oxy}-2-(methylsulfonyl)phenol]
